Where two headings read alike, the source gives them in different places. Square brackets hold non-standard residues; d marks the D form. Peptide text beside a SMILES is read from it. Cit = NC(=O)NCCC[C@H](N)C(=O)O
How the values were obtained:
HLA-DRB1*01:01 = target: T1, HLA-DRB1*01:01 (Homo sapiens, UniProt P01903+P01911, A100R/D57E/F55L/F60I/F76Y/I96L/L162R/M171V/P40L/Q125E/R42F/V115G/Y59C); test: HLA class II peptide binding, inhibition of radiolabeled peptide binding to purified MHC; conditions: read-out: DRB1*01:01 binding capacity, Cit peptide (IC50 nM)
T1 construct: EBV transformed homozygous cell lines were used as sources of MHC molecules; endogenous in cells; host or cells: EBV transformed homozygous cell lines

HLA-DRB1*04:01 = target: T2, HLA-DRB1*04:01 (Homo sapiens, UniProt P01903+P01911, A100K/A169T/F76Y/I96L/K127E/L162R/M171V/N62H/P40V/Q125Y/R42H/S133A/S149N/S66Y/V115G/V209L/W38E); test: as above; conditions: read-out: DRB1*04:01 binding capacity, Cit peptide (IC50 nM)
T2 construct: EBV transformed homozygous cell lines were used as sources of MHC molecules; endogenous in cells; host or cells: EBV transformed homozygous cell lines

[1] = citrullinated 15-mer (X), purified MHC, inhibition of radiolabeled peptide binding, dash = IC50 >40,000 nM
[2] = citrullinated 15-mer peptide (X = citrulline), purified HLA-DRB1*01:01
[3] = citrullinated 15-mer peptide (X = citrulline), purified HLA-DRB1*04:01

Row | SMILES | IC50 (HLA-DRB1*01:01; [1]) [nM] | IC50 (HLA-DRB1*04:01; [1]) [nM] | IC50 (HLA-DRB1*01:01; [2]) [nM] | IC50 (HLA-DRB1*04:01; [3]) [nM]
1 | CC(C)C[C@H](NC(=O)[C@H](CC(N)=O)NC(=O)[C@H](CCCCN)NC(=O)[C@H](C)NC(=O)[C@H](C)NC(=O)[C@@H](NC(=O)[C@H](CO)NC(=O)[C@H](CCC(=O)O)NC(=O)[C@H](Cc1ccc(O)cc1)NC(=O)[C@H](CCC(N)=O)NC(=O)[C@H](CCC(N)=O)NC(=O)[C@H](CCCNC(N)=O)NC(=O)[C@@H](NC(=O)[C@@H](N)CC(=O)O)C(C)C)C(C)C)C(=O)N[C@@H](CCC(N)=O)C(=O)O [DVXQQYESVAAKNLQ] (H-DV[Cit]QQYESVAAKNLQ-OH) | 19 | 7760 | – | –
2 | CC(C)[C@H](NC(=O)[C@H](CC(=O)O)NC(=O)CNC(=O)[C@H](CCCNC(N)=O)NC(=O)[C@@H](N)CC(=O)O)C(=O)NCC(=O)N[C@@H](CCC(=O)O)C(=O)N[C@@H](CCCCN)C(=O)NCC(=O)N1CCC[C@H]1C(=O)N[C@@H](CCC(=O)O)C(=O)NCC(=O)N[C@@H](C)C(=O)N1CCC[C@H]1C(=O)NCC(=O)O [DXGDVGEKGPEGAPG] (H-D[Cit]GDVGEKGPEGAPG-OH) | – | – | 2270 | 33300
3 | CSCC[C@H](NC(=O)[C@H](CCC(=O)O)NC(=O)[C@H](CCC(=O)O)NC(=O)[C@@H](N)CCC(=O)O)C(=O)N[C@@H](CCCNC(=N)N)C(=O)N[C@@H](CCC(=O)O)C(=O)N[C@@H](CC(C)C)C(=O)N[C@@H](CCCNC(=N)N)C(=O)N[C@@H](CCCNC(N)=O)C(=O)N[C@@H](CCC(N)=O)C(=O)N[C@H](C(=O)N[C@@H](CC(=O)O)C(=O)N[C@@H](CCC(N)=O)C(=O)N[C@@H](CC(C)C)C(=O)N[C@H](C(=O)O)[C@@H](C)O)C(C)C [EEEMRELRXQVDQLT] (H-EEEMRELR[Cit]QVDQLT-OH) | 686 | 1280 | – | –
4 | CSCC[C@H](NC(=O)[C@H](CCC(=O)O)NC(=O)[C@H](CCC(=O)O)NC(=O)[C@@H](N)CCC(=O)O)C(=O)N[C@@H](CCCNC(=N)N)C(=O)N[C@@H](CCC(=O)O)C(=O)N[C@@H](CC(C)C)C(=O)N[C@@H](CCCNC(N)=O)C(=O)N[C@@H](CCCNC(=N)N)C(=O)N[C@@H](CCC(N)=O)C(=O)N[C@H](C(=O)N[C@@H](CC(=O)O)C(=O)N[C@@H](CCC(N)=O)C(=O)N[C@@H](CC(C)C)C(=O)N[C@H](C(=O)O)[C@@H](C)O)C(C)C [EEEMRELXRQVDQLT] (H-EEEMREL[Cit]RQVDQLT-OH) | 1490 | 4740 | – | –
5 | CSCC[C@H](NC(=O)[C@H](CCC(=O)O)NC(=O)[C@H](CCC(=O)O)NC(=O)[C@@H](N)CCC(=O)O)C(=O)N[C@@H](CCCNC(N)=O)C(=O)N[C@@H](CCC(=O)O)C(=O)N[C@@H](CC(C)C)C(=O)N[C@@H](CCCNC(=N)N)C(=O)N[C@@H](CCCNC(=N)N)C(=O)N[C@@H](CCC(N)=O)C(=O)N[C@H](C(=O)N[C@@H](CC(=O)O)C(=O)N[C@@H](CCC(N)=O)C(=O)N[C@@H](CC(C)C)C(=O)N[C@H](C(=O)O)[C@@H](C)O)C(C)C [EEEMXELRRQVDQLT] (H-EEEM[Cit]ELRRQVDQLT-OH) | 1250 | 6570 | – | –
6 | CSCC[C@H](NC(=O)[C@H](CCC(=O)O)NC(=O)[C@@H](N)CCC(=O)O)C(=O)N[C@@H](CC(C)C)C(=O)N[C@@H](CCC(N)=O)C(=O)N[C@@H](CCCNC(N)=O)C(=O)N[C@@H](CCC(=O)O)C(=O)N[C@@H](CCC(=O)O)C(=O)N[C@@H](C)C(=O)N[C@@H](CCC(=O)O)C(=O)N[C@@H](CC(N)=O)C(=O)N[C@H](C(=O)N[C@@H](CC(C)C)C(=O)N[C@@H](CCC(N)=O)C(=O)N[C@@H](CO)C(=O)O)[C@@H](C)O [EEMLQXEEAENTLQS] (H-EEMLQ[Cit]EEAENTLQS-OH) | 869 | 14000 | – | –
7 | CC[C@H](C)[C@H](NC(=O)[C@@H](N)CCC(=O)O)C(=O)N[C@@H](C)C(=O)N[C@H](C(=O)N[C@@H](Cc1ccc(O)cc1)C(=O)N[C@@H](CCCNC(=N)N)C(=O)N[C@@H](CCCCN)C(=O)N[C@@H](CC(C)C)C(=O)N[C@@H](CC(C)C)C(=O)N[C@@H](CCC(=O)O)C(=O)NCC(=O)N[C@@H](CCC(=O)O)C(=O)N[C@@H](CCC(=O)O)C(=O)N[C@@H](CO)C(=O)N[C@@H](CCCNC(N)=O)C(=O)O)[C@@H](C)O [EIATYRKLLEGEESX] (H-EIATYRKLLEGEES[Cit]-OH) | – | – | 470 | 4300

From publication PMC5421785, “Citrullination only infrequently impacts peptide binding to HLA class II MHC” (PLoS ONE, 2017)
